Measurements: the supplement of paper PMC10307832

What was measured:
Assay in all cases: relative viability (nuclei count vs DMSO), 5 days (fraction); higher = more cells survive
EPLC-272H = tested on: EPLC-272H
Method in brief: (§1)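 Dosing by pin tool came one day after lung cancer cell lines were seeded in 1536-well plates, using either one drug or a fixed anchor-drug dose plus five library-drug doses (not always all listed) in √10 steps. After 5 days, nuclei were counted on 4× images. Relative viability is treated-well nuclei count divided by vehicle-well nuclei count, and values are medians of duplicate plates.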

NCI-H727 = tested on: NCI-H727
Method in brief: as §1

NCI-H358 = tested on: NCI-H358
Method in brief: as §1

NCI-H2087 = tested on: NCI-H2087
Method in brief: as §1

HCC-827 = tested on: HCC-827
Method in brief: as §1

NCI-H1792 = tested on: NCI-H1792
Method in brief: as §1

NCI-H1650 = tested on: NCI-H1650
Method in brief: as §1

LOU-NH91 = tested on: LOU-NH91
Method in brief: as §1

LU99A = tested on: LU99A
Method in brief: as §1

LK-2 = tested on: LK-2
Method in brief: as §1

NCI-H1563 = tested on: NCI-H1563
Method in brief: as §1

NCI-H522 = tested on: NCI-H522
Method in brief: as §1

NCI-H2126 = tested on: NCI-H2126
Method in brief: as §1

EKVX = tested on: EKVX
Method in brief: as §1

COR-L 105 = tested on: COR-L 105
Method in brief: as §1

BEN = tested on: BEN
Method in brief: as §1

SW 900 = tested on: SW 900
Method in brief: as §1

LCLC-97TM1 = tested on: LCLC-97TM1
Method in brief: as §1

SK-MES-1 = tested on: SK-MES-1
Method in brief: as §1

SW 1573 = tested on: SW 1573
Method in brief: as §1

EMC-BAC-2 = tested on: EMC-BAC-2
Method in brief: as §1

HCC-78 = tested on: HCC-78
Method in brief: as §1

## COCC1(CO)C(=O)C2CCN1CC2 (stereo not drawn) [PRIMA-1MET] + COc1cccc2cc(-c3nc([C@H]4CC[C@H](C(=O)O)CC4)n4ncnc(N)c34)[nH]c12 [OSI-027] (partner 0.5 µM)
EPLC-272H; first compound 2 µM
  relative viability: 0.235
EPLC-272H; first compound 6.325 µM
  relative viability: 0.27
EPLC-272H; first compound 20 µM
  relative viability: 0.0689
NCI-H727; first compound 0.2 µM
  relative viability: 0.357
NCI-H727; first compound 0.6325 µM
  relative viability: 0.371
NCI-H727; first compound 2 µM
  relative viability: 0.498
NCI-H727; first compound 6.325 µM
  relative viability: 0.536
NCI-H727; first compound 20 µM
  relative viability: 0.338
NCI-H358; first compound 0.2 µM
  relative viability: 0.734
NCI-H358; first compound 2 µM
  relative viability: 0.653
NCI-H358; first compound 6.325 µM
  relative viability: 0.954
NCI-H358; first compound 20 µM
  relative viability: 0.365
NCI-H2087; first compound 0.2 µM
  relative viability: 0.355
NCI-H2087; first compound 0.6325 µM
  relative viability: 0.481
NCI-H2087; first compound 2 µM
  relative viability: 0.681
NCI-H2087; first compound 6.325 µM
  relative viability: 0.433
NCI-H2087; first compound 20 µM
  relative viability: 0.262
HCC-827; first compound 0.2 µM
  relative viability: 0.694
HCC-827; first compound 0.6325 µM
  relative viability: 0.668
HCC-827; first compound 2 µM
  relative viability: 0.625
HCC-827; first compound 6.325 µM
  relative viability: 0.784
HCC-827; first compound 20 µM
  relative viability: 0.748
NCI-H1792; first compound 0.2 µM
  relative viability: 0.683
NCI-H1792; first compound 0.6325 µM
  relative viability: 0.693
NCI-H1792; first compound 2 µM
  relative viability: 0.635
NCI-H1792; first compound 6.325 µM
  relative viability: 0.734
NCI-H1792; first compound 20 µM
  relative viability: 0.802
NCI-H1650; first compound 0.2 µM
  relative viability: 0.742
NCI-H1650; first compound 0.6325 µM
  relative viability: 0.664
NCI-H1650; first compound 2 µM
  relative viability: 0.483
NCI-H1650; first compound 6.325 µM
  relative viability: 0.636
NCI-H1650; first compound 20 µM
  relative viability: 0.0483
LOU-NH91; first compound 0.2 µM
  relative viability: 0.806
LOU-NH91; first compound 0.6325 µM
  relative viability: 0.719
LOU-NH91; first compound 2 µM
  relative viability: 0.589
LOU-NH91; first compound 6.325 µM
  relative viability: 0.662
LOU-NH91; first compound 20 µM
  relative viability: 0.468
LU99A; first compound 0.2 µM
  relative viability: 0.322
LU99A; first compound 0.6325 µM
  relative viability: 0.29
LU99A; first compound 2 µM
  relative viability: 0.292
LU99A; first compound 6.325 µM
  relative viability: 0.268
LU99A; first compound 20 µM
  relative viability: 0.0893
LK-2; first compound 0.2 µM
  relative viability: 0.201
LK-2; first compound 0.6325 µM
  relative viability: 0.186
LK-2; first compound 2 µM
  relative viability: 0.155
LK-2; first compound 6.325 µM
  relative viability: 0.149
LK-2; first compound 20 µM
  relative viability: 0.118
NCI-H1563; first compound 0.2 µM
  relative viability: 0.854
NCI-H1563; first compound 0.6325 µM
  relative viability: 0.789
NCI-H1563; first compound 2 µM
  relative viability: 0.735
NCI-H1563; first compound 6.325 µM
  relative viability: 0.744
NCI-H1563; first compound 20 µM
  relative viability: 0.327
NCI-H522; first compound 0.2 µM
  relative viability: 0.647
NCI-H522; first compound 0.6325 µM
  relative viability: 0.671
NCI-H522; first compound 2 µM
  relative viability: 0.596
NCI-H522; first compound 6.325 µM
  relative viability: 0.836
NCI-H522; first compound 20 µM
  relative viability: 0.13
NCI-H2126; first compound 0.2 µM
  relative viability: 0.799
NCI-H2126; first compound 0.6325 µM
  relative viability: 0.603
NCI-H2126; first compound 2 µM
  relative viability: 0.56
NCI-H2126; first compound 6.325 µM
  relative viability: 0.728
NCI-H2126; first compound 20 µM
  relative viability: 0.675
EKVX; first compound 0.2 µM
  relative viability: 0.915
EKVX; first compound 0.6325 µM
  relative viability: 0.723
EKVX; first compound 6.325 µM
  relative viability: 0.78
EKVX; first compound 20 µM
  relative viability: 0.695
COR-L 105; first compound 0.2 µM
  relative viability: 0.899
COR-L 105; first compound 0.6325 µM
  relative viability: 0.66
COR-L 105; first compound 2 µM
  relative viability: 0.488
COR-L 105; first compound 6.325 µM
  relative viability: 0.662
COR-L 105; first compound 20 µM
  relative viability: 0.0915
BEN; first compound 0.2 µM
  relative viability: 0.283
BEN; first compound 0.6325 µM
  relative viability: 0.304
BEN; first compound 6.325 µM
  relative viability: 0.287
BEN; first compound 20 µM
  relative viability: 0.336
SW 900; first compound 0.2 µM
  relative viability: 0.54
SW 900; first compound 0.6325 µM
  relative viability: 0.451
SW 900; first compound 2 µM
  relative viability: 0.471
SW 900; first compound 6.325 µM
  relative viability: 0.362
SW 900; first compound 20 µM
  relative viability: 0.0628
LCLC-97TM1; first compound 0.2 µM
  relative viability: 0.306
LCLC-97TM1; first compound 0.6325 µM
  relative viability: 0.554
LCLC-97TM1; first compound 2 µM
  relative viability: 0.582
LCLC-97TM1; first compound 6.325 µM
  relative viability: 0.364
LCLC-97TM1; first compound 20 µM
  relative viability: 0.438
SK-MES-1; first compound 0.2 µM
  relative viability: 0.65
SK-MES-1; first compound 0.6325 µM
  relative viability: 0.711
SK-MES-1; first compound 2 µM
  relative viability: 0.543
SK-MES-1; first compound 6.325 µM
  relative viability: 0.633
SK-MES-1; first compound 20 µM
  relative viability: 0.436
SW 1573; first compound 0.2 µM
  relative viability: 0.622
SW 1573; first compound 0.6325 µM
  relative viability: 0.482
SW 1573; first compound 2 µM
  relative viability: 0.597
SW 1573; first compound 6.325 µM
  relative viability: 0.0316
SW 1573; first compound 20 µM
  relative viability: 0.032
EMC-BAC-2; first compound 0.2 µM
  relative viability: 0.509
EMC-BAC-2; first compound 0.6325 µM
  relative viability: 0.385
EMC-BAC-2; first compound 6.325 µM
  relative viability: 0.366
EMC-BAC-2; first compound 20 µM
  relative viability: 0.322
HCC-78; first compound 0.2 µM
  relative viability: 0.385
HCC-78; first compound 0.6325 µM
  relative viability: 0.345
HCC-78; first compound 6.325 µM
  relative viability: 0.339
HCC-78; first compound 20 µM
  relative viability: 0.199
